PubChem BioAssay (NCI)
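Interpolation was linear, between the two tested concentrations surrounding the appropriate level; five concentrations were tested over 48 hours in 96-well plates. GI50: concentration for 50% inhibition of growth. TGI denotes the concentration required for complete inhibition of growth.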

Columns and labels:
Test in all cases: growth of human tumour cells (NCI), 48 h
A498 renal = test system: A498 renal
HT29 colon = test system: HT29 colon
SN12C renal = test system: SN12C renal
SF-539 CNS = test system: SF-539 CNS
MDA-MB-231 breast = test system: MDA-MB-231 breast
HS 578T breast = test system: HS 578T breast
CAKI-1 renal = test system: CAKI-1 renal
TK-10 renal = test system: TK-10 renal
SK-MEL-2 melanoma = test system: SK-MEL-2 melanoma
COLO 205 colon = test system: COLO 205 colon
SK-MEL-5 melanoma = test system: SK-MEL-5 melanoma
HOP-92 NSCLC = test system: HOP-92 NSCLC
MDA-MB-435 = test system: MDA-MB-435
NCI-H226 lung = test system: NCI-H226 lung
UACC-257 melanoma = test system: UACC-257 melanoma
NCI-H522 lung = test system: NCI-H522 lung
SK-OV-3 ovarian = test system: SK-OV-3 ovarian
UO-31 renal = test system: UO-31 renal
BT-549 breast = test system: BT-549 breast
DU-145 prostate = test system: DU-145 prostate
SNB-75 CNS = test system: SNB-75 CNS
PC-3 prostate = test system: PC-3 prostate
OVCAR-5 ovarian = test system: OVCAR-5 ovarian
UACC-62 melanoma = test system: UACC-62 melanoma
ACHN renal = test system: ACHN renal
U251 CNS = test system: U251 CNS
SW-620 colon = test system: SW-620 colon
SF-295 CNS = test system: SF-295 CNS
HCC-2998 colon = test system: HCC-2998 colon
MCF7 breast = test system: MCF7 breast
MOLT-4 leukemia = test system: MOLT-4 leukemia
OVCAR-8 ovarian = test system: OVCAR-8 ovarian
HCT-15 colon = test system: HCT-15 colon
NCI/ADR-RES ovarian = test system: NCI/ADR-RES ovarian
786-0 renal = test system: 786-0 renal
SK-MEL-28 melanoma = test system: SK-MEL-28 melanoma
KM12 colon = test system: KM12 colon
EKVX NSCLC = test system: EKVX NSCLC
IGROV1 ovarian = test system: IGROV1 ovarian
HCT-116 colon = test system: HCT-116 colon
T-47D breast = test system: T-47D breast
HOP-62 NSCLC = test system: HOP-62 NSCLC
SNB-19 CNS = test system: SNB-19 CNS
HL-60(TB) leukemia = test system: HL-60(TB) leukemia
A549 NSCLC = test system: A549 NSCLC
OVCAR-4 ovarian = test system: OVCAR-4 ovarian
SR leukemia = test system: SR leukemia
K-562 leukemia = test system: K-562 leukemia
NCI-H460 lung = test system: NCI-H460 lung
SF-268 CNS = test system: SF-268 CNS
RPMI-8226 leukemia = test system: RPMI-8226 leukemia
CCRF-CEM leukemia = test system: CCRF-CEM leukemia
M14 melanoma = test system: M14 melanoma

NCCCNc1nc2ccccc2c2c(=O)c3cc(Cl)ccc3sc12
GI50 (A498 renal): 3.22 µM
TGI (A498 renal): 12.1 µM
GI50 (HT29 colon): 1.72 µM
TGI (HT29 colon): 3.18 µM
GI50 (SN12C renal): 1.63 µM
TGI (SN12C renal): 3.07 µM
GI50 (SF-539 CNS): 1.72 µM
TGI (SF-539 CNS): 3.15 µM
GI50 (MDA-MB-231 breast): 1.34 µM
TGI (MDA-MB-231 breast): 2.69 µM
GI50 (HS 578T breast): 2.01 µM
TGI (HS 578T breast): 5.24 µM
GI50 (CAKI-1 renal): 1.49 µM
TGI (CAKI-1 renal): 2.86 µM
GI50 (TK-10 renal): 2.18 µM
TGI (TK-10 renal): 3.68 µM
GI50 (SK-MEL-2 melanoma): 1.99 µM
TGI (SK-MEL-2 melanoma): 3.69 µM
GI50 (COLO 205 colon): 1.63 µM
TGI (COLO 205 colon): 3.1 µM
GI50 (SK-MEL-5 melanoma): 3.71 µM
TGI (SK-MEL-5 melanoma): 16.2 µM
GI50 (HOP-92 NSCLC): 1.28 µM
TGI (HOP-92 NSCLC): 3.35 µM
GI50 (MDA-MB-435): 1.75 µM
TGI (MDA-MB-435): 3.18 µM
GI50 (NCI-H226 lung): 8.54 µM
TGI (NCI-H226 lung): 74.2 µM
GI50 (UACC-257 melanoma): 2 µM
TGI (UACC-257 melanoma): 3.74 µM
GI50 (NCI-H522 lung): 1.66 µM
TGI (NCI-H522 lung): 3.14 µM
GI50 (SK-OV-3 ovarian): 1.58 µM
TGI (SK-OV-3 ovarian): 3.48 µM
GI50 (UO-31 renal): 1.28 µM
TGI (UO-31 renal): 2.58 µM
GI50 (BT-549 breast): 13.5 µM
TGI (BT-549 breast): 46.2 µM
GI50 (DU-145 prostate): 1.84 µM
TGI (DU-145 prostate): 3.27 µM
GI50 (SNB-75 CNS): 1.4 µM
TGI (SNB-75 CNS): 2.79 µM
GI50 (PC-3 prostate): 1.69 µM
TGI (PC-3 prostate): 3.23 µM
GI50 (OVCAR-5 ovarian): 1.67 µM
TGI (OVCAR-5 ovarian): 3.14 µM
GI50 (UACC-62 melanoma): 1.67 µM
TGI (UACC-62 melanoma): 3.16 µM
GI50 (ACHN renal): 1.57 µM
TGI (ACHN renal): 2.92 µM

COc1ccc(C(=CCC(C)C2CCC3[C@@H]4C(OC(C)=O)CC5CC(OC(C)=O)CC[C@]5(C)C4CC(OC(C)=O)[C@]23C)c2ccc(OC)cc2)cc1 (stereo not given in full)
TGI (HT29 colon): > 100 µM
TGI (U251 CNS): > 100 µM
TGI (SN12C renal): > 100 µM
TGI (SF-539 CNS): > 100 µM
TGI (SW-620 colon): > 100 µM
TGI (MDA-MB-231 breast): > 100 µM
TGI (HS 578T breast): > 100 µM
TGI (TK-10 renal): > 100 µM
TGI (SF-295 CNS): > 100 µM
TGI (HCC-2998 colon): > 100 µM
TGI (MCF7 breast): > 100 µM
TGI (COLO 205 colon): > 100 µM
TGI (MOLT-4 leukemia): > 100 µM
TGI (SK-MEL-5 melanoma): > 100 µM
TGI (OVCAR-8 ovarian): > 100 µM
TGI (HCT-15 colon): > 100 µM
TGI (NCI/ADR-RES ovarian): > 100 µM
TGI (786-0 renal): > 100 µM
TGI (MDA-MB-435): > 100 µM
TGI (SK-MEL-28 melanoma): > 100 µM
TGI (KM12 colon): > 100 µM
TGI (EKVX NSCLC): > 100 µM
TGI (UACC-257 melanoma): > 100 µM
TGI (IGROV1 ovarian): > 100 µM
TGI (NCI-H522 lung): > 100 µM
TGI (HCT-116 colon): > 100 µM
TGI (SK-OV-3 ovarian): > 100 µM
TGI (T-47D breast): > 100 µM
TGI (HOP-62 NSCLC): > 100 µM
TGI (UO-31 renal): > 100 µM
TGI (SNB-19 CNS): > 100 µM
TGI (SNB-75 CNS): > 100 µM
TGI (PC-3 prostate): > 100 µM
TGI (HL-60(TB) leukemia): 45.3 µM
TGI (A549 NSCLC): > 100 µM
TGI (OVCAR-4 ovarian): > 100 µM
TGI (OVCAR-5 ovarian): > 100 µM
TGI (SR leukemia): 77.5 µM
TGI (K-562 leukemia): > 100 µM
TGI (NCI-H460 lung): > 100 µM
TGI (SF-268 CNS): > 100 µM
TGI (RPMI-8226 leukemia): > 100 µM
TGI (ACHN renal): > 100 µM
TGI (CCRF-CEM leukemia): > 100 µM
TGI (M14 melanoma): > 100 µM
